Tests used:
[1] = system: PBMC from patients infected with HIV; experiment: recall CTL responses, PBMC from HIV-infected patients, 51Cr release; type: cell-based, human
[2] = system: HLA-A11/K^b transgenic mice; experiment: CTL induction in HLA-A11/K^b transgenic mice after peptide immunization; type: in vivo; conditions: protocol as for HLA-A2 transgenic mice
HLA-A*0203 = HLA-A*0203 (Homo sapiens, UniProt P04439, A173T/D140Y/D185E/D98H/E277Q/G131W/G231S/I119V/I121R/I166T/I218V/L180W/L300P/L318F/N151K/N90K/P208A/P217A/Q86G/Q94H/R138H/R169H/T345S); experiment: purified HLA class I binding assay, A*0203
HLA-A*0206 = HLA-A*0206 (Homo sapiens, UniProt P04439, D140Y/D185E/D98H/E176V/E277Q/F33Y/G131W/G231S/I119V/I121R/I166T/I218V/L300P/L318F/N151K/N90K/P208A/P217A/Q86G/Q94H/R138H/R169H/T345S); experiment: purified HLA class I binding assay, A*0206
HLA-A*6802 = HLA-A*6802 (Homo sapiens, UniProt P04439, A269V/D140Y/D185E/E176V/E277Q/E87N/F33Y/G231S/I121R/I166T/I218V/L180W/L300P/L318F/N151K/P208A/P217A/Q86R/R138H/R169H/S129P/T345S/V36M); experiment: purified HLA class I binding assay, A*6802
[3] = system: A*0201/K^b transgenic mice; experiment: CTL induction in A*0201/K^b transgenic mice after peptide immunization; type: in vivo

Structure (SMILES) | immunogenicity in HIV-infected patients ([1]; shown by collaborators) | induction of CTL in HLA-A11 transgenic mice [2] | IC50 (HLA-A*0203) [nM] | IC50 (HLA-A*0206) [nM] | Immunogenicity patients ([1]; A2-supertype peptides, positive/tested HIV-infected patients) | Immunogenicity patients ([1]; A2 Supermotif peptides, positive/tested patients) | IC50 (HLA-A*6802) [nM] | Immunogenicity transgenic ([3]; A2 Supermotif peptides, positive/tested transgenic) | Immunogenicity transgenic ([3]; A*0201/K^b transgenic mice, positive/tested)
CC(C)[C@H](N)C(=O)N[C@H](C(=O)N[C@H](C(=O)N[C@@H](Cc1ccc(O)cc1)C(=O)N[C@@H](Cc1ccc(O)cc1)C(=O)NCC(=O)N[C@H](C(=O)N1CCC[C@H]1C(=O)N[C@H](C(=O)N[C@@H](Cc1c[nH]c2ccccc12)C(=O)N[C@@H](CCCCN)C(=O)O)C(C)C)C(C)C)C(C)C)[C@@H](C)O [Peptide 1069.47] | immunogenic in HIV-infected patients | induced CTL responses in transgenic mice | – | – | – | – | – | – | –
CC[C@H](C)[C@H](NC(=O)CNC(=O)[C@H](Cc1c[nH]c2ccccc12)NC(=O)[C@@H](NC(=O)[C@@H](NC(=O)[C@H](CC(C)C)NC(=O)[C@H](CCC(N)=O)NC(=O)[C@H](CC(C)C)NC(=O)[C@@H](N)CC(C)C)[C@@H](C)O)C(C)C)C(=O)O [Peptide 1261.02] | – | – | 43.5 | 24.7 | 2/8 | 2/8 | 645 | 1/6 | 1/6
